In ChEMBL document CHEMBL1129611, “Vesamicol receptor mapping of brain cholinergic neurons with radioiodine-labeled positional isomers of benzovesamicol” (J Med Chem, 1996):

Tests used:
[1] = Tissue distribution of [125I]- labelled compound in mice lung in 4 hours; type: functional, tissue-based
[2] = Tissue distribution of [125I]- labelled compound in mice liver in 24 hours; type: functional, tissue-based
[3] = Tissue distribution of [125I]- labelled compound in mice blood in 0.5 hours; type: functional, tissue-based
[4] = (§1) Tissue distribution of [125I]- labelled compound in mice blood in 4 hours; type: functional, tissue-based
[5] = Tissue distribution of [125I]- labelled compound in mice liver in 0.5 hr; type: functional, tissue-based
[6] = Tissue distribution of [125I]- labelled compound in mice striatum in 4 hours; type: functional, tissue-based
[7] = Tissue distribution of [125I]- labelled compound in mice cerebellum in 4 hours; type: functional, tissue-based
[8] = Tissue distribution of [125I]- labelled compound in mice atria in 4 hours; type: functional
[9] = Tissue distribution of [125I]- labelled compound in mice liver in 4 hours; type: functional, tissue-based
[10] = Tissue distribution of [125I]- labelled compound in mice lung in 24 hours; type: functional, tissue-based
[11] = Tissue distribution of [125I]- labelled compound in mice ventricle in 24 hours; type: functional
[12] = Tissue distribution of [125I]- labelled compound in mice cortex in 24 hours; type: functional, tissue-based
[13] = Tissue distribution of [125I]- labelled compound in mice cerebellum in 24 hours; type: functional, tissue-based
[14] = Tissue distribution of [125I]- labelled compound in mice […] in 24 hours; type: functional
[15] = Tissue distribution of [125I]- labelled compound in mice ventricles in 0.5 hr; type: functional
[16] = Tissue distribution of [125I]- labelled compound in mice […] in 4 hours; type: functional
[17] = Tissue distribution of [125I]- labelled compound in mice blood in 24 hours; type: functional, tissue-based
[18] = Tissue distribution of [125I]- labelled compound in mice lung in 0.5 hr; type: functional, tissue-based
[19] = Tissue distribution of [125I]- labelled compound in mice cerebellum in 0.5 hr; type: functional, tissue-based
[20] = Tissue distribution of [125I]- labelled compound in mice striatum in 0.5 hours; type: functional, tissue-based
[21] = species on record: Mus musculus; experiment: as §1; type: ADME, organism-based; details: in vivo
[22] = Tissue distribution of [125I]- labelled compound in mice ventricles in 4 hours; type: functional
[23] = Tissue distribution of [125I]- labelled compound in mice hippocampus in 0.5 hours; type: functional, tissue-based
[24] = Tissue distribution of [125I]- labelled compound in mice striatum in 24 hours; type: functional, tissue-based
[25] = Tissue distribution of [125I]- labelled compound in mice hippocampus in 4 hours; type: functional, tissue-based
[26] = Tissue distribution of [125I]- labelled compound in mice hippocampus in 24 hours; type: functional, tissue-based
[27] = Tissue distribution of [125I]- labelled compound in mice […] in 0.5 hours; type: functional
[28] = Tissue distribution of [125I]- labelled compound in mice cortex in 0.5 hours; type: functional, tissue-based
[29] = Tissue distribution of [125I]- labelled compound in mice cortex in 4 hours; type: functional, tissue-based
[30] = Tissue distribution of [125I]- labelled compound in mice atria in 0.5 hr; type: functional
[31] = Tissue distribution of [125I]- labelled compound in mice atria in 24 hours; type: functional
[32] = Tissue distribution of [125I]- labelled compound in mice latria in 0.5 hr; type: functional

Compound | Dose/g [1] [%] | Dose/g [3] [%] | Dose/g [4] [%] | Dose/g [5] [%] | Dose/g [6] [%] | Dose/g [7] [%] | Dose/g [8] [%] | Dose/g [9] [%] | Dose/g [15] [%] | Dose/g [16] [%] | Dose/g [18] [%] | Dose/g [19] [%] | Dose/g [20] [%] | Dose/g [22] [%] | Dose/g [23] [%] | Dose/g [25] [%] | Dose/g [27] [%] | Dose/g [28] [%] | Dose/g [29] [%] | Dose/g [32] [%] | other results
O[C@@H]1Cc2cc(I)ccc2C[C@H]1N1CCC(c2ccccc2)CC1 | 5.86 | 1.13 | 0.47 | 19.3 | 1.96 | 1.23 | 2.45 | 12.7 | 3.29 | 1.42 | 13.1 | 2.06 | 2.34 | 1.77 | 1.99 | 1.27 | 2.16 | 2.32 | 1.62 |  | Dose/g [2]: 6.48%; Dose/g [10]: 1.74%; Dose/g [11]: 0.27%; Dose/g [12]: 1.74%; Dose/g [13]: 1.06%; Dose/g [14]: 1.35%; Dose/g [17]: 0.09%; Dose/g [21]: 0.47%; Dose/g [24]: 2.32%; Dose/g [26]: 1.48%; Dose/g [30]: 4.37%; Dose/g [31]: 0.77%
O[C@@H]1Cc2ccccc2C[C@H]1N1CCC(c2ccc(I)cc2)CC1 | 2.95 | 1.85 | 0.66 | 15.4 | 0.33 | 0.28 | 1.35 | 9.12 | 2.9 | 0.28 | 8.86 | 2.33 | 2.68 | 1.88 | 2.91 | 0.31 | 2.73 | 3.01 | 0.32 | 3.03 | 
O[C@@H]1Cc2ccc(I)cc2C[C@H]1N1CCC(c2ccccc2)CC1 | 0.89 | 1.06 | 0.51 | 18 | 3.07 | 0.29 | 0.97 | 6.33 | 1.34 | 0.68 | 3.39 | 2.05 | 3.9 | 0.53 | 2.73 | 1.03 | 2.51 | 2.99 | 1.28 | 2.09 | Dose/g [2]: 0.88%; Dose/g [10]: 0.1%; Dose/g [11]: 0.1%; Dose/g [12]: 0.22%; Dose/g [13]: 0.05%; Dose/g [14]: 0.1%; Dose/g [17]: 0.05%; Dose/g [24]: 0.76%; Dose/g [26]: 0.16%; Dose/g [31]: 0.1%
O[C@@H]1Cc2c(I)cccc2C[C@H]1N1CCC(c2ccccc2)CC1 |  | 1 | 0.19 |  | 0.12 | 0.08 | 0.34 |  | 1.25 |  |  | 1.22 | 1.64 | 0.23 |  |  |  | 1.53 | 0.1 | 1.64 | 
O[C@@H]1Cc2cccc(I)c2C[C@H]1N1CCC(c2ccccc2)CC1 | 1.11 | 0.82 | 0.53 | 11 | 3.3 | 0.21 | 1.43 | 5.92 | 1.27 | 0.61 | 7.57 | 1.28 | 3.81 | 0.31 | 2.09 | 1.06 | 1.69 | 2.29 | 1.17 | 1.73 | Dose/g [2]: 0.89%; Dose/g [10]: 0.09%; Dose/g [11]: 0.06%; Dose/g [12]: 0.88%; Dose/g [13]: 0.05%; Dose/g [14]: 0.42%; Dose/g [17]: 0.04%; Dose/g [24]: 2.2%; Dose/g [26]: 0.71%; Dose/g [31]: 0.82%
